Results on 56 molecules are retold here after patent publication US5773424A, “Treatment of toxoplasmosis” (priority 1994, dated 1998).

For the first experiment, the target named is T. gondii adenosine kinase (Toxoplasma gondii, UniProt Q9TVW2). Description: biochemical.
Sequence of T. gondii adenosine kinase (Q9TVW2 whole entry): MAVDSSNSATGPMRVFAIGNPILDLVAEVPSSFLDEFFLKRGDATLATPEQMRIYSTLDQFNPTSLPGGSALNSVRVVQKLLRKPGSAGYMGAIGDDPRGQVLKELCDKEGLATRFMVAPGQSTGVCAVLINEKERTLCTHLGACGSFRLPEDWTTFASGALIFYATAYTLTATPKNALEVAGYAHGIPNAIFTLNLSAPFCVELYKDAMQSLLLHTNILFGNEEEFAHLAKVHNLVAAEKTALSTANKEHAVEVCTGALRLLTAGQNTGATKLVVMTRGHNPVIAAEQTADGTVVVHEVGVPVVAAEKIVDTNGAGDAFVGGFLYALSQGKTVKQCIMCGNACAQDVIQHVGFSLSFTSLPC
Conditions: not given
On the procedure: Preparation of cytosol extracts. For the structure activity relationships studies, approximately 5×10^8 T. gondii were suspended in 1.2 ml of 50 mM N-2-hydroxyethylpiperazine-N'-2-ethanesulfonic acid (HEPES)-Cl (pH 8.0)/1 mM dithiothreitol and homogenized for 30 seconds at setting 10, using a Brinnmann Instruments Polytron homogenizer fitted with a PTA 7K1 probe. The homogenate was then centrifuged at approximately 116,000 g for 1 hour at 5° and the supernatant (cytosol extract) collected and used as the enzyme source. Fresh cytosol extracts were prepared for each experiment.
Adenosine kinase assay. T. gondii adenosine kinase activity was measured by following the formation of [^14 C]AMP from [^14 C]adenosine and ATP. […] Therefore, the standard reaction mixture contained 50 mM HEPES-Cl (pH 8.0), 1 mM dithiothreitol, 5 μM [8-^14 C]adenosine (45 Ci/mol), 0.5 mM ATP, 0.5 mM MgCl2, 25 μM (+)-EHNA or 100 μM (±)-EHNA,10-30 μl of cytosol extract (approximately 3-10 μg of protein), and either 0, 0.1, 0.25, 0.5 or 1.0 mM of the compound to be tested, in a final volume of 150 μl.
Reactions were started by the addition of [8-^14 C]adenosine, incubated at 37° for 10 minutes and terminated by placing the reaction tubes in a boiling water bath for 2 minutes. Precipitated proteins were removed by centrifugation in a microcentrifuge (approximately 13,000 g) for 5 minutes, and a 15 μl aliquot of the resulting supernatant was mixed with 5 μl of a solution containing 10 mM each of AMP and adenosine. This mixture was then spotted on silica gel thin layer chromatography plates which were developed with a mixture of chloroform/methanol/acetic acid (16:3:1). […] The substrate and product spots (which accounted for all of the radioactivity on the plates) were identified by UV quenching, cut out, and the radioactivity quantitated by liquid scintillation counting in 20 ml of Scintilene, using a Packard 460 scintillation counter. […] Enzyme velocity was calculated by multiplying the fraction of AMP formed from adenosine times the amount of adenosine in the assay, and dividing by the incubation time.
Determination and significance of AppKi values. AppKi values were used to determine the relative degree of binding of compounds to adenosine kinase as compared to adenosine. AppKi values were estimated from Dixon plots of the data (1/.nu. versus [I]), using a computer program with least squares fitting according to the general principles of Cleland (Cleland, W W, The statistical analysis of enzyme kinetic data. Adv. Enzymol. 29:1-32, 1967). The program was written by Dr. Sungman Cha (Brown University, Providence, R.I.) and modified to fit IBM BASIC by Dr. Fardos N. M. Naguib. […] It should be noted, however, that the type of inhibition (i.e., competitive, noncompetitive, or uncompetitive) produced by the compounds was not determined, nor were the compounds evaluated as substrates for T. gondii adenosine kinase.
For `Nc1ncnc2c1ncn2[C@@H]1O[C@H](CO)[C@@H](O)[C@H]1O` [Compound 1], the Ki was 7 ± 3.3 µM.

The molecule `Nc1ncnc2c1ncn2[C@H]1O[C@H](CO)[C@@H](O)[C@H]1O` [Compound 3] gave a Ki of 8400 µM.

For `Nc1c2ncn([C@@H]3O[C@H](CO)[C@@H](O)[C@H]3O)c2nc[n+]1[O-]` [Compound 4], the Ki was found to be 1230 µM.

Turning to `Cn1cnc2c(ncn2[C@@H]2O[C@H](CO)[C@@H](O)[C@H]2O)c1=N` [Compound 6], the Ki was 88 ± 28 µM.

In turn, `Nc1nc(Cl)nc2c1ncn2[C@@H]1O[C@H](CO)[C@@H](O)[C@H]1O` [Compound 7] showed a Ki of 870 ± 50 µM.

`OC[C@H]1O[C@@H](n2cnc3c(Br)ncnc32)[C@H](O)[C@@H]1O` [Compound 12] came in with a Ki of 28 ± 2 µM.

On to `OC[C@H]1O[C@@H](n2cnc3c(Cl)ncnc32)[C@H](O)[C@@H]1O` [Compound 13, 6-Chloropurine riboside], for which the Ki is 9.5 µM.

`OC[C@H]1O[C@@H](n2cnc3c(I)ncnc32)[C@H](O)[C@@H]1O` [Compound 14] registered a Ki of 18 ± 1 µM.

As to `COc1ncnc2c1ncn2[C@@H]1O[C@H](CO)[C@@H](O)[C@H]1O` [Compound 16], the Ki turned out to be 370 ± 40 µM.

In turn, `OC[C@H]1O[C@@H](n2cnc3c(S)ncnc32)[C@H](O)[C@@H]1O` [Compound 17] came in with a Ki of 5300 µM.

Turning to `CCSc1ncnc2c1ncn2[C@@H]1O[C@H](CO)[C@@H](O)[C@H]1O` [Compound 19], the Ki is 330 ± 3 µM.

The molecule `CCNc1ncnc2c1ncn2[C@@H]1O[C@H](CO)[C@@H](O)[C@H]1O` [Compound 28] showed a Ki of 100 ± 3 µM.

Turning to `C=CCNc1ncnc2c1ncn2[C@@H]1O[C@H](CO)[C@@H](O)[C@H]1O` [Compound 30], the Ki amounted to 220 ± 20 µM.

`CCCCNc1ncnc2c1ncn2[C@@H]1O[C@H](CO)[C@@H](O)[C@H]1O` [Compound 32]: the Ki stood at 220 ± 90 µM.

The molecule `C/C(=C\CNc1ncnc2c1ncn2[C@@H]1O[C@H](CO)[C@@H](O)[C@H]1O)CO` [Compound 34] returned a Ki of 280 ± 20 µM.

For `OC[C@H]1O[C@@H](n2cnc3c(NCc4ccco4)ncnc32)[C@H](O)[C@@H]1O` [Compound 38], the Ki is 180 ± 10 µM.

As to `CCCCCCNc1ncnc2c1ncn2[C@@H]1O[C@H](CO)[C@@H](O)[C@H]1O` [Compound 39], the Ki is 76 ± 4 µM.

`OC[C@H]1O[C@@H](n2cnc3c(NC4CCCCC4)ncnc32)[C@H](O)[C@@H]1O` [Compound 40] had a Ki of 240 ± 70 µM.

In turn, `CC(C)=CCCC(C)=CCNc1ncnc2c1ncn2[C@@H]1O[C@H](CO)[C@@H](O)[C@H]1O` [Compound 41] returned a Ki of 100 ± 5 µM.

In the case of `CCCCCCCCCCNc1ncnc2c1ncn2[C@@H]1O[C@H](CO)[C@@H](O)[C@H]1O` [Compound 42], the Ki was 380 ± 130 µM.

As to `OC[C@H]1O[C@@H](n2cnc3c(Nc4ccccc4)ncnc32)[C@H](O)[C@@H]1O` [Compound 43], the Ki was 88 ± 12 µM.

`O=C(Nc1ncnc2c1ncn2[C@@H]1O[C@H](CO)[C@@H](O)[C@H]1O)c1ccccc1` [Compound 44] had a Ki of 23 ± 1 µM.

`OC[C@H]1O[C@@H](n2cnc3c(NCc4ccccc4)ncnc32)[C@H](O)[C@@H]1O` [Compound 45] yielded a Ki of 100 ± 30 µM.

With `Nc1ccc(CNc2ncnc3c2ncn3[C@@H]2O[C@H](CO)[C@@H](O)[C@H]2O)cc1` [Compound 46], the Ki was 120 ± 10 µM.

Molecule `COc1ccc(C(=O)Nc2ncnc3c2ncn3[C@@H]2O[C@H](CO)[C@@H](O)[C@H]2O)cc1` [Compound 47] showed a Ki of 3.9 ± 0.9 µM.

`C[C@H](Cc1ccccc1)Nc1ncnc2c1ncn2[C@@H]1O[C@H](CO)[C@@H](O)[C@H]1O` [Compound 49]: the Ki came to 750 ± 30 µM.

In turn, `NC(=NO)c1cn([C@@H]2O[C@H](CO)[C@@H](O)[C@H]2O)c2ncnc(N)c12` [Compound 56] came in with a Ki of 200 ± 6 µM.

In turn, `Nc1ncnc2c1nnn2[C@@H]1O[C@H](CO)[C@@H](O)[C@H]1O` [Compound 57] came in with a Ki of 23 ± 6 µM.

`Nc1ncnc2c1nc(Br)n2[C@@H]1O[C@H](CO)[C@@H](O)[C@H]1O` [Compound 59] returned a Ki of 660 ± 70 µM.

`Nc1ncnc2c([C@@H]3O[C@H](CO)[C@@H](O)[C@H]3O)c[nH]c12` [Compound 60] displayed a Ki of 3400 µM.

As for `Nc1nc(Cl)c2ncn([C@@H]3O[C@H](CO)[C@@H](O)[C@H]3O)c2n1` [Compound 63], the Ki was 1800 µM.

`OC[C@H]1O[C@@H](n2ccc3c(Cl)ncnc32)[C@H](O)[C@@H]1O` [Compound 68]: the Ki is 72 ± 12 µM.

As to `NNc1ncnc2c1ccn2[C@@H]1O[C@H](CO)[C@@H](O)[C@H]1O` [Compound 69, 6-Hydrazino-7-deazapurine riboside], the Ki is 180 ± 10 µM.

Still in this experiment, the particulars now being: AppKi for inhibition of T. gondii adenosine kinase, 5 μM adenosine; ± range, at least two estimations.
On to `Nc1nc(F)nc2c1ncn2[C@@H]1O[C@H](CO)[C@@H](O)[C@H]1O` [Compound 8], for which the Ki is 3000 µM.

On to `OC[C@H]1O[C@@H](n2cnc3cncnc32)[C@H](O)[C@@H]1O` [Compound 11], for which the Ki is 170 ± 20 µM.

As to `O=[N+]([O-])c1ccc(CSc2ncnc3c2ncn3[C@@H]2O[C@H](CO)[C@@H](O)[C@H]2O)cc1` [Compound 21], the Ki was 140 ± 10 µM.

Take `OC[C@H]1O[C@@H](n2cnc3c(=[Se])[nH]cnc32)[C@H](O)[C@@H]1O` [Compound 23]: the Ki was 130 ± 20 µM.

For `O=[N+]([O-])c1ccc(C[Se]c2ncnc3c2ncn3[C@@H]2O[C@H](CO)[C@@H](O)[C@H]2O)cc1` [Compound 24], the Ki is 84 ± 46 µM.

Regarding `CNc1ncnc2c1ncn2[C@@H]1O[C@H](CO)[C@@H](O)[C@H]1O` [Compound 26], the Ki is 23 ± 1 µM.

For `CC(C)=CCNc1ncnc2c1ncn2[C@@H]1O[C@H](CO)[C@@H](O)[C@H]1O` [Compound 36], the Ki is 51 ± 4 µM.

On to `Nc1ncnc2c1ccn2[C@@H]1O[C@H](CO)[C@@H](O)[C@H]1O` [Compound 51], for which the Ki was 340 ± 80 µM.

For the molecule `Nc1ncnc2c1c(Cl)cn2[C@@H]1O[C@H](CO)[C@@H](O)[C@H]1O` [Compound 52], the Ki was 10 ± 1 µM.

For the molecule `N#Cc1cn([C@@H]2O[C@H](CO)[C@@H](O)[C@H]2O)c2ncnc(N)c12` [Compound 54, 7-Cyano-7-deazaadenosine (Toyocamycin)], the Ki is under 60 µM.

Consider `N#Cc1cn([C@@H]2O[C@H](CO)[C@@H](O)[C@H]2O)c2ncnc(N)c12` [Compound 54], for which the Ki is 21 ± 2 µM.

On to `NC(=O)c1cn([C@@H]2O[C@H](CO)[C@@H](O)[C@H]2O)c2ncnc(N)c12` [Compound 55, 7-Carboxamido-7-deazaadenosine (Sangivamycin)], for which the Ki was under 60 µM.

Consider `OC[C@H]1O[C@@H](n2cnc3c(NC4CCCC4)nc(Cl)nc32)[C@H](O)[C@@H]1O` [Compound 66], for which the Ki was 390 ± 90 µM.

Staying with this experiment, now noted: read-out: AppKi for inhibition of T. gondii adenosine kinase; 5 μM adenosine; ± range, at least two estimations.
As for `Nc1ncnc2c1ncn2[C@@H]1C[C@H](CO)[C@@H](O)[C@H]1O` (relative stereo) [Compound 112, Carbocyclic adenosine], the Ki is 170 ± 30 µM.

The same experiment, now with this note: read-out: Inhibition of T. gondii adenosine kinase.
Usually inhibition stands for the percentage by which the read-out fell short of the control. In the case of `CCCCCCC(C(C)O)n1cnc2c(N)ncnc21` (racemic) [Compound 113, (±)-EHNA], the inhibition at 1000 µM was under 10%.

In the case of `Nc1ncnc2c1ncn2[C@H]1O[C@@H](CO)[C@H](O)[C@@H]1O` [Compound 2], the inhibition at 1000 µM was under 10%.

For `Nc1ccnc2c1ncn2[C@@H]1O[C@H](CO)[C@@H](O)[C@H]1O` [Compound 5], the inhibition at 1000 µM was under 10%.

On to `Nc1nc(Nc2ccccc2)nc2c1ncn2[C@@H]1O[C@H](CO)[C@@H](O)[C@H]1O` [Compound 9], for which the inhibition at 1000 µM was under 10%.

As to `Nc1nccc2c1ncn2[C@@H]1O[C@H](CO)[C@@H](O)[C@H]1O` [Compound 10], the inhibition at 1000 µM is under 10%.

Regarding `O=c1[nH]cnc2c1ncn2[C@@H]1O[C@H](CO)[C@@H](O)[C@H]1O` [Compound 15], the inhibition at 1000 µM is under 10%.

Regarding `OC[C@H]1O[C@@H](n2cnc3cccnc32)[C@H](O)[C@@H]1O` [Compound 61], the inhibition at 1000 µM is under 10%.

Regarding `Nc1nc2c(ncn2[C@@H]2O[C@H](CO)[C@@H](O)[C@H]2O)c(=O)[nH]1` [Compound 64], the inhibition at 1000 µM was under 10%.

Consider `O=c1[nH]c(=O)c2ncn([C@@H]3O[C@H](CO)[C@@H](O)[C@H]3O)c2[nH]1` [Compound 67], for which the inhibition at 1000 µM was under 10%.
